# Assay results reported in ChEMBL document CHEMBL1201862, “PubChem BioAssay data set” (2004).
#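 Method: 48-hour compound exposure of cells in 96-well plates, five concentrations, linear interpolation of endpoints. GI50: concentration for 50% inhibition of growth.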 Calls of active or inactive are those of the source. Rule as the data show it: active = GI50 up to about 1.1 µM and inactive = higher.
# How the values were obtained:
# Assay in all cases: inhibition of tumour cell growth, NCI panel, 48 h
# IGROV-1 = test system: IGROV-1
# CCRF-CEM = test system: CCRF-CEM
# OVCAR-4 = test system: OVCAR-4
# NCI-H23 = test system: NCI-H23
# SK-MEL-5 = test system: SK-MEL-5
# UACC-62 = test system: UACC-62
# LOX IMVI = test system: LOX IMVI
# NCI/ADR-RES = test system: NCI/ADR-RES
# HCT-116 = test system: HCT-116
# MDA-MB-435 = test system: MDA-MB-435
# SNB-75 = test system: SNB-75
# HOP-92 = test system: HOP-92
# T47D = test system: T47D
# MOLT-4 = test system: MOLT-4
# U-251 = test system: U-251
# A549 = test system: A549
# TK-10 = test system: TK-10
# CAKI-1 = test system: CAKI-1
# SF-295 = test system: SF-295
# NCI-H460 = test system: NCI-H460
SMILES,GI50 (IGROV-1),GI50 (CCRF-CEM),GI50 (OVCAR-4),GI50 (NCI-H23),GI50 (SK-MEL-5),GI50 (UACC-62),GI50 (LOX IMVI),GI50 (NCI/ADR-RES),GI50 (HCT-116),GI50 (MDA-MB-435),GI50 (SNB-75),GI50 (HOP-92),GI50 (T47D),GI50 (MOLT-4),GI50 (U-251),GI50 (A549),GI50 (TK-10),GI50 (CAKI-1),GI50 (SF-295),GI50 (NCI-H460)
O=C(O)c1[nH]c2c([N+](=O)[O-])cc([N+](=O)[O-])cc2c1C(=O)O,> 100 µM (inactive),> 100 µM (inactive),> 100 µM (inactive),> 100 µM (inactive),> 100 µM (inactive),> 100 µM (inactive),> 100 µM (inactive),> 100 µM (inactive),> 100 µM (inactive),52.1 µM (inactive),> 100 µM (inactive),> 100 µM (inactive),> 100 µM (inactive),> 100 µM (inactive),> 100 µM (inactive),> 100 µM (inactive),> 100 µM (inactive),> 100 µM (inactive),> 100 µM (inactive),> 100 µM (inactive)
Cc1ccc2c(O)cc(-c3cccs3)nc2n1,4.86 µM (inactive),15.3 µM (inactive),> 90.6 µM (inactive),7.71 µM (inactive),4.72 µM (inactive),9.04 µM (inactive),11.4 µM (inactive),2.9 µM (inactive),4.81 µM (inactive),1.58 µM (inactive),10.1 µM (inactive),57 µM (inactive),6.64 µM (inactive),9.64 µM (inactive),12.1 µM (inactive),9.79 µM (inactive),> 100 µM (inactive),15.4 µM (inactive),17 µM (inactive),5.08 µM (inactive)
Cc1nc(Cl)c(Cl)c(Cl)n1,0.173 µM (active),0.0109 µM (active),0.0331 µM (active),0.526 µM (active),0.705 µM (active),0.375 µM (active),0.0596 µM (active),0.354 µM (active),0.118 µM (active),0.531 µM (active),1.18 µM (inactive),0.238 µM (active),0.596 µM (active),< 0.0142 µM (active),2.04 µM (inactive),1.49 µM (inactive),1.08 µM (active),< 0.01 µM (active),1.86 µM (inactive),1.38 µM (inactive)
NS(=O)(=O)c1ccc(/N=N/c2c(O)c(C(=O)O)cc3ccccc23)cc1,> 100 µM (inactive),> 100 µM (inactive),> 100 µM (inactive),> 100 µM (inactive),53.8 µM (inactive),37.2 µM (inactive),82.6 µM (inactive),> 100 µM (inactive),> 100 µM (inactive),45.4 µM (inactive),> 100 µM (inactive),> 100 µM (inactive),> 100 µM (inactive),> 100 µM (inactive),49.3 µM (inactive),> 100 µM (inactive),> 100 µM (inactive),> 100 µM (inactive),> 100 µM (inactive),> 100 µM (inactive)
CCOc1cccc(-c2cc(O)c3cc4c(cc3n2)OCO4)c1,0.548 µM (active),0.084 µM (active),82 µM (inactive),0.396 µM (active),0.0505 µM (active),0.043 µM (active),0.233 µM (active),0.0828 µM (active),0.0942 µM (active),0.0164 µM (active),0.0948 µM (active),0.264 µM (active),54.7 µM (inactive),0.296 µM (active),0.0619 µM (active),0.378 µM (active),0.421 µM (active),0.2 µM (active),0.0735 µM (active),0.318 µM (active)
COc1ccc2c(c1)OC(c1cccnc1)C(c1ccccc1)C2=O (stereo not given),> 100 µM (inactive),> 100 µM (inactive),> 100 µM (inactive),> 100 µM (inactive),> 100 µM (inactive),> 100 µM (inactive),> 100 µM (inactive),> 100 µM (inactive),97.5 µM (inactive),> 100 µM (inactive),> 100 µM (inactive),49.5 µM (inactive),> 100 µM (inactive),> 100 µM (inactive),43.8 µM (inactive),> 100 µM (inactive),> 100 µM (inactive),> 100 µM (inactive),46.5 µM (inactive),> 100 µM (inactive)
Nc1ncnc2c1ncn2[C@@H]1O[C@H](C(=O)O)[C@@H](O)[C@H]1O [5'-CARBOXY ADENOSINE],> 100 µM (inactive),> 100 µM (inactive),> 100 µM (inactive),> 100 µM (inactive),> 100 µM (inactive),> 100 µM (inactive),> 100 µM (inactive),> 100 µM (inactive),> 100 µM (inactive),> 100 µM (inactive),> 100 µM (inactive),> 100 µM (inactive),> 100 µM (inactive),> 100 µM (inactive),> 100 µM (inactive),> 100 µM (inactive),> 100 µM (inactive),> 100 µM (inactive),> 100 µM (inactive),> 100 µM (inactive)
On1c(-c2ccccc2)nc2ccccc2c1=S,0.493 µM (active),1.55 µM (inactive),2.22 µM (inactive),3.43 µM (inactive),3.58 µM (inactive),3.7 µM (inactive),0.632 µM (active),4.2 µM (inactive),2.7 µM (inactive),7.43 µM (inactive),19.3 µM (inactive),> 100 µM (inactive),3.37 µM (inactive),2.04 µM (inactive),4.95 µM (inactive),2.84 µM (inactive),> 100 µM (inactive),5.48 µM (inactive),2.7 µM (inactive),0.583 µM (active)
C/C(=N\N=C(/S)N(C)C)c1cccc[n+]1[O-],45.3 µM (inactive),0.565 µM (active),46.8 µM (inactive),12.6 µM (inactive),27.7 µM (inactive),16.1 µM (inactive),20.5 µM (inactive),2.05 µM (inactive),0.489 µM (active),65.8 µM (inactive),93.1 µM (inactive),22.3 µM (inactive),0.413 µM (active),0.914 µM (active),44.3 µM (inactive),59.7 µM (inactive),82.2 µM (inactive),32.4 µM (inactive),39.6 µM (inactive),33.6 µM (inactive)
